We go through 2 compounds from PMC11345841, “Exploring 2-Sulfonylpyrimidine Warheads as Acrylamide Surrogates for Targeted Covalent Inhibition: A BTK Story” (Journal of Medicinal Chemistry, 2024).

Assay [1] addresses T1, EPHA7 (Homo sapiens, UniProt Q15375).
T1 construct: purchased Eurofins DiscoverX KINOMEscan (scanTK)
The assay can be described thus: KINOMEscan ScanTK. In kind it is binding.

For assay [2], the target named is T2, IGF1R (Homo sapiens, UniProt P08069).
T2 construct: purchased Eurofins DiscoverX KINOMEscan (scanTK)
Put plainly: KINOMEscan ScanTK. In kind it is binding.

The target of assay [3] is T3, FLT4 (Homo sapiens, UniProt P35916).
T3 construct: purchased Eurofins DiscoverX KINOMEscan (scanTK)
Put plainly: KINOMEscan ScanTK. In kind it is binding.

In assay [4] the target is T4, ERBB4 (Homo sapiens, UniProt Q15303).
T4 construct: purchased Eurofins DiscoverX KINOMEscan (scanTK)
Put plainly: KINOMEscan ScanTK. The format is binding.

Assay [5] deals with T5, RET (Homo sapiens, UniProt P07949).
T5 construct: purchased Eurofins DiscoverX KINOMEscan (scanTK)
Put plainly: KINOMEscan ScanTK. The format is binding.

The target in assay [6] is T6, LYN (Homo sapiens, UniProt P07948).
T6 construct: purchased Eurofins DiscoverX KINOMEscan (scanTK)
The assay can be described thus: KINOMEscan ScanTK. The format is binding.

The target in assay [7] is T7, ABL1(Q252H)-phosphorylated (Homo sapiens, UniProt P00519, Q252H).
T7 construct: purchased Eurofins DiscoverX KINOMEscan (scanTK)
The assay can be described thus: KINOMEscan ScanTK. In kind it is binding.

Assay [8] concerns the target T8, ZAP70 (Homo sapiens, UniProt P43403).
T8 construct: purchased Eurofins DiscoverX KINOMEscan (scanTK)
T8 sequence (P43403 1-619): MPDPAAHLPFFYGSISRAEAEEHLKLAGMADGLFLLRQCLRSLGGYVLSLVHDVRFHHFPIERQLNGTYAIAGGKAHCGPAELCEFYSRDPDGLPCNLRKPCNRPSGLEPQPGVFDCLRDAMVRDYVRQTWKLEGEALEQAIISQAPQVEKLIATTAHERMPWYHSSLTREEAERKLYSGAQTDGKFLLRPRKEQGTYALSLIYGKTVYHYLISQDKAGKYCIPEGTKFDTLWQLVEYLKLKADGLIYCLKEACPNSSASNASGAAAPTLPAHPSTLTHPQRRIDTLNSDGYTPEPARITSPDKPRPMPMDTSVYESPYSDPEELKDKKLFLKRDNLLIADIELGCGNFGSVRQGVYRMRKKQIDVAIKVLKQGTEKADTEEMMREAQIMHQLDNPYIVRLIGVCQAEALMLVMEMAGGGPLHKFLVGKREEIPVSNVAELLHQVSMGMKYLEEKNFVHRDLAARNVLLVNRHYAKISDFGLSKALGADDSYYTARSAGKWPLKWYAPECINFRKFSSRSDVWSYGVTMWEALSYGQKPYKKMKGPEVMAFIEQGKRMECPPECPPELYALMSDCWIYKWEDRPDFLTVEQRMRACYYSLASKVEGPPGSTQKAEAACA
Put plainly: KINOMEscan ScanTK. The format is binding.

Assay [9] addresses T9, YES (Homo sapiens, UniProt P07947).
T9 construct: purchased Eurofins DiscoverX KINOMEscan (scanTK)
Put plainly: KINOMEscan ScanTK. The format is binding.

Assay [10] deals with T10, FLT3(N841I) (Homo sapiens, UniProt P36888, N841I).
T10 construct: purchased Eurofins DiscoverX KINOMEscan (scanTK)
T10 sequence (P36888 27-993 N841I): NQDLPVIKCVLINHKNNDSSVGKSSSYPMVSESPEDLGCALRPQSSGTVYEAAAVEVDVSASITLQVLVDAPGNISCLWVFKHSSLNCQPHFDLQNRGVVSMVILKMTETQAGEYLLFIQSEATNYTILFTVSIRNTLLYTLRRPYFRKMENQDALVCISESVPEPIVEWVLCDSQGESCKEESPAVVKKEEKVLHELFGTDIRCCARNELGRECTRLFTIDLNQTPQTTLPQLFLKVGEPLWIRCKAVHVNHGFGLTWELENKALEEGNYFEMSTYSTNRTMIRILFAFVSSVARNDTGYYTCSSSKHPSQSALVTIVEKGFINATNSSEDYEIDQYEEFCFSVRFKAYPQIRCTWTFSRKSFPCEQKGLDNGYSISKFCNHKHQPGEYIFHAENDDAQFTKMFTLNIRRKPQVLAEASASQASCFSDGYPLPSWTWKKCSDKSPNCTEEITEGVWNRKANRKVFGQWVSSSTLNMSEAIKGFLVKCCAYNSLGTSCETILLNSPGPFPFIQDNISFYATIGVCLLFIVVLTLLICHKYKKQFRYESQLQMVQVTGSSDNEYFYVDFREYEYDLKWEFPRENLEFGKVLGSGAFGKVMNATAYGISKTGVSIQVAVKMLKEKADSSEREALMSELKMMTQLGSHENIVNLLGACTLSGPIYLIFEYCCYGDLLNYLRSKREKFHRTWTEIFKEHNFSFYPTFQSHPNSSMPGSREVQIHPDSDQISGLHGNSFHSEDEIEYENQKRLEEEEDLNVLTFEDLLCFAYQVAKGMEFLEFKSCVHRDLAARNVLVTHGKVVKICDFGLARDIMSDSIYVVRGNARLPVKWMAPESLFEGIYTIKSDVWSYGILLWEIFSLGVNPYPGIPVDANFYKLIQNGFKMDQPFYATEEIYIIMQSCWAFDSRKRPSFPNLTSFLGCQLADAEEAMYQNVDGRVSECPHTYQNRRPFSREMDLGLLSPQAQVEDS
Put plainly: KINOMEscan ScanTK. The format is binding.

Assay [11] deals with T11, EGFR, cytoplasmic domain (669–1210) (Homo sapiens, UniProt P00533).
T11 construct: GST (N); purchased Carna Biosciences
The assay can be described thus: PhosphoSens enzymatic IC50 (AssayQuant). Conditions: no preincubation. In kind it is biochemical. The text has this:
(§1) Biochemical enzymatic IC50 data were generated by AssayQuant Technologies (Marlborough, MA) using the PhosphoSens Platform. […] Reaction rate versus log [inhibitor concentration] data were fitted to the four-parameter logistic equation [drawing 1]

Assay [12] has as its target BTK, full length (2–659) (Homo sapiens, UniProt Q06187). The assay can be described thus: PhosphoSens enzymatic IC50 (AssayQuant). The format is biochemical. Conditions: for IC50: 1 nM BTK, 1.0 mM ATP.
Description: as §1

The structures appear in SMILES notation. Like-named read-outs stand apart in the source and are kept apart here. Where only a bound is given, the exact number is not on record here.

T4 sequence (Q15303 26-1308): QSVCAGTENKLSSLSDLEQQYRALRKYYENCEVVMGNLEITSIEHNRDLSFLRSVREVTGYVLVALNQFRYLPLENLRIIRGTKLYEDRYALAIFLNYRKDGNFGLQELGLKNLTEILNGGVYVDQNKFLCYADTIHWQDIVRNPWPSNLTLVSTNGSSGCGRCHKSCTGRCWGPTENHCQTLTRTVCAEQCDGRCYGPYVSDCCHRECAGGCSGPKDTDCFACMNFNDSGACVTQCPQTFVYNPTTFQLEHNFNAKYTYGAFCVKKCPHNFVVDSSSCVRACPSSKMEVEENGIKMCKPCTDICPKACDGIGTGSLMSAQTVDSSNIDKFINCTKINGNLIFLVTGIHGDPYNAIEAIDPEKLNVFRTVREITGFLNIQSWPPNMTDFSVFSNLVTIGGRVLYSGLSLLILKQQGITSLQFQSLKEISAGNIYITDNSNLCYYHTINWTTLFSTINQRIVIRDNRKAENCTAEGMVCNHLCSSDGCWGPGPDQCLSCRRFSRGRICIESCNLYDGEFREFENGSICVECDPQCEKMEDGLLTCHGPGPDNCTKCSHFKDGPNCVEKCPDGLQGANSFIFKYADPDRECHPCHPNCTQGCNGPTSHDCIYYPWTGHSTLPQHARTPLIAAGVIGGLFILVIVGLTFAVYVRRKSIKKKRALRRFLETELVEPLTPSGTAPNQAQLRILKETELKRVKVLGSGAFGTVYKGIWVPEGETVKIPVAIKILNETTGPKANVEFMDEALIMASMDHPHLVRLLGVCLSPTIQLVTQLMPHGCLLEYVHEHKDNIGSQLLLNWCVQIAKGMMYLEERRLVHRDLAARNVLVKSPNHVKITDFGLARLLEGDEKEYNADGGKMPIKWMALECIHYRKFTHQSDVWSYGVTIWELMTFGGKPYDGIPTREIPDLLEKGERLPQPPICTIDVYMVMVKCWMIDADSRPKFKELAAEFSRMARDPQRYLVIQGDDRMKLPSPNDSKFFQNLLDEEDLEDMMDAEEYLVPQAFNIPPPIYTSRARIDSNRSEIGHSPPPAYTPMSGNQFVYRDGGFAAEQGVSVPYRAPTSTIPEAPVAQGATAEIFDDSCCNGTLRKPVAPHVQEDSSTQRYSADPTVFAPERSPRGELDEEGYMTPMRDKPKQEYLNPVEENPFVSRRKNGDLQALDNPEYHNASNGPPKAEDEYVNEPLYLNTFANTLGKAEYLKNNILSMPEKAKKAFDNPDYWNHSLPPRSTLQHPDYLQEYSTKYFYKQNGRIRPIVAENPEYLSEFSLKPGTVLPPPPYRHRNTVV
Sequence of BTK, full length (2–659) (Q06187 2-659): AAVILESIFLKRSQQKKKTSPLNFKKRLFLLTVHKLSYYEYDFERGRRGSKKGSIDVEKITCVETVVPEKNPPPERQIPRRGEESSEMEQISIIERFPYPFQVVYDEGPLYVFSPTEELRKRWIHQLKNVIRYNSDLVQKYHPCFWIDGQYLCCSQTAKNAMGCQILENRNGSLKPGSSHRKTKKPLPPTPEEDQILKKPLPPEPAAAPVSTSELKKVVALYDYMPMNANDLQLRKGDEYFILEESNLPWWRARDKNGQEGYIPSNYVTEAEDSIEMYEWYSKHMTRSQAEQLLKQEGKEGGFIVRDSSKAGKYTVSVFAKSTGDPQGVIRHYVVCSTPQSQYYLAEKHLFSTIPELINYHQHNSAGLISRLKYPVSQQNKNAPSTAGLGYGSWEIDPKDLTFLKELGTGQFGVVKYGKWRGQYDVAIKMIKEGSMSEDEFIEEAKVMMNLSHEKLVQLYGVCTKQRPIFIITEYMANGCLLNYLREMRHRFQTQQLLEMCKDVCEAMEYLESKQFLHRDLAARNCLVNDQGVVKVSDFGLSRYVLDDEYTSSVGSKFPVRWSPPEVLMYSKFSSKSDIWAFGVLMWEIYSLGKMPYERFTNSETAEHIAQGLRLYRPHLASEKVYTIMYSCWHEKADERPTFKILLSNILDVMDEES
T2 sequence (P08069 31-1367): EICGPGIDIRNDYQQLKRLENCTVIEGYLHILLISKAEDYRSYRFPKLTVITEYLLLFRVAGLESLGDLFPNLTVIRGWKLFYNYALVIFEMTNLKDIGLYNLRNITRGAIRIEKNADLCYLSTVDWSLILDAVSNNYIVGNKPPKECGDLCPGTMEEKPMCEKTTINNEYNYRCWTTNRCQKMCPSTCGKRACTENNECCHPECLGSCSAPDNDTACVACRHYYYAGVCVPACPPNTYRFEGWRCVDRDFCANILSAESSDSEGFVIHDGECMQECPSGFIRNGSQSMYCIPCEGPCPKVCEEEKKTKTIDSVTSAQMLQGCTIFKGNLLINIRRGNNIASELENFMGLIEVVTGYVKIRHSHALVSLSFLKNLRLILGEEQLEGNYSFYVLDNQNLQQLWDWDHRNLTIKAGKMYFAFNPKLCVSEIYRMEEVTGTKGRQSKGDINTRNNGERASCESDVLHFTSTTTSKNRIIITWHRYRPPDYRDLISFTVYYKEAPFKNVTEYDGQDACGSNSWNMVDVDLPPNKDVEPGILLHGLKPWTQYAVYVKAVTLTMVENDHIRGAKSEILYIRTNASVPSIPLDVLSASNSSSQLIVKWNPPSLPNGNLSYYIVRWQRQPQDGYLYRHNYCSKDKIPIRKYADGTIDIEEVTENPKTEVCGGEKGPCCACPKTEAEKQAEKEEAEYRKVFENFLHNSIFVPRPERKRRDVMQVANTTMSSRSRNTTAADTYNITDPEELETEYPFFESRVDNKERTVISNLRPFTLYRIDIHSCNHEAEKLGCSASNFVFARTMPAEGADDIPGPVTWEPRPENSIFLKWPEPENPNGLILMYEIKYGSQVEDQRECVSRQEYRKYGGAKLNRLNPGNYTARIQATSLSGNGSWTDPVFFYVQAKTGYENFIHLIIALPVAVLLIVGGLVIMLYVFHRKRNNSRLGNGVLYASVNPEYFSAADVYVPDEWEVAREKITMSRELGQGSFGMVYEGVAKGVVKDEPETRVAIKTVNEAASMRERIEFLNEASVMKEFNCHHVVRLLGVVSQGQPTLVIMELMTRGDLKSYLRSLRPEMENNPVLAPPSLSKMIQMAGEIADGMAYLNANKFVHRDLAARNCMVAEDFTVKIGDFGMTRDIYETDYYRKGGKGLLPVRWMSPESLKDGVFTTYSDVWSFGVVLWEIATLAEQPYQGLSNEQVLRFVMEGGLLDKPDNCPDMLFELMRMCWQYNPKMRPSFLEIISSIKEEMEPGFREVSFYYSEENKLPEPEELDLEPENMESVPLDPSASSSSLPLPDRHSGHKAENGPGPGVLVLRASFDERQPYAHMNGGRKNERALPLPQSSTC
T1 sequence (Q15375 28-998): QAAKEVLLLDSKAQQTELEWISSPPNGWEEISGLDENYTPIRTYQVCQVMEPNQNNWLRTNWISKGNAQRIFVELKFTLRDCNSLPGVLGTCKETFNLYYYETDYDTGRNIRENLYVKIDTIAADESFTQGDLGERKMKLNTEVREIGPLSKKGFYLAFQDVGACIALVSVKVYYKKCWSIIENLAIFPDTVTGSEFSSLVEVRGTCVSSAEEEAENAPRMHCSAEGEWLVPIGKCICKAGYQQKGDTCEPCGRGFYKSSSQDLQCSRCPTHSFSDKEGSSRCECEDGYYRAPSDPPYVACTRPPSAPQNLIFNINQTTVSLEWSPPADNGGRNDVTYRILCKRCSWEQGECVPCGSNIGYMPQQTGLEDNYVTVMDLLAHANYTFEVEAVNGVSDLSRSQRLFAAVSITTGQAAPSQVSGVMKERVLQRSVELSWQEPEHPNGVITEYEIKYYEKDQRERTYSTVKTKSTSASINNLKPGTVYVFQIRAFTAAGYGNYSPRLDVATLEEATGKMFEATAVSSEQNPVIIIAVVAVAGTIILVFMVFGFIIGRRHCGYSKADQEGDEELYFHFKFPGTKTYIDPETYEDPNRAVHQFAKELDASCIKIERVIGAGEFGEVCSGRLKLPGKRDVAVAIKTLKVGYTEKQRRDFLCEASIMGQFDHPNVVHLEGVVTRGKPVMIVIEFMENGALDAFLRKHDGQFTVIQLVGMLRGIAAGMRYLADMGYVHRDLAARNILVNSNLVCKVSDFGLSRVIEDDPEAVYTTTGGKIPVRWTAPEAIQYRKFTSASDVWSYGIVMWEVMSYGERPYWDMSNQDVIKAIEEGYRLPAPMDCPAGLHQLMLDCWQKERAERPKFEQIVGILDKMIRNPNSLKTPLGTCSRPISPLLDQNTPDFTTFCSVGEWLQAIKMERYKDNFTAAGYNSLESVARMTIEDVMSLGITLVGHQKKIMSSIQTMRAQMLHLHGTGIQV
T6 sequence (P07948 whole entry): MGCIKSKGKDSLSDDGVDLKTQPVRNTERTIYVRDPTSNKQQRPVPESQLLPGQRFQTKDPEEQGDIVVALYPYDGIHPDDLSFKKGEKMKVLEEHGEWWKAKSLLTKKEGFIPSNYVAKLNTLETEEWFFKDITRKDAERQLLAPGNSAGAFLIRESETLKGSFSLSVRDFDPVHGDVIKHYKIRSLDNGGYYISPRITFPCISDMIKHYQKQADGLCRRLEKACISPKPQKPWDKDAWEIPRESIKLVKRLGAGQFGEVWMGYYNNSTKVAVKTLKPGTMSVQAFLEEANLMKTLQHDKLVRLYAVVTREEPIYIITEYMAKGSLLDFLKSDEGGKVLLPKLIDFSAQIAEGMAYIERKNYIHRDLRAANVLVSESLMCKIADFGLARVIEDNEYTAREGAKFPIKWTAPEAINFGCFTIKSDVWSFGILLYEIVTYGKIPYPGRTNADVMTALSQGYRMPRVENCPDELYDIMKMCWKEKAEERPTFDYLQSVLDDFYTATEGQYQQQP

As for `C=CC(=O)N1CCC[C@@H](n2nc(-c3ccc(Oc4ccccc4)cc3)c3c(N)ncnc32)C1` [Compound 1g, Ibrutinib, reference compound], the remaining binding at 1 µM in [1] (@1000nM, read-out: %Control) was 95%; in assay [1] (read-out: %Control @1000nM), 95%; in assay [2] (@1000nM, read-out: %Control), 96%; in assay [2] (read-out: %Control @1000nM), 96%; in [3] (@1000nM, read-out: %Control), 27%; in [3] (read-out: %Control @1000nM), 27%. The remaining binding at 1 µM in assay [4] (@1000nM, read-out: %Control) came out at 0.05%; in assay [4] (read-out: %Control @1000nM), 0.05%; in assay [5] (@1000nM, read-out: %Control), 12%; in assay [5] (read-out: %Control @1000nM), 12%; in assay [6] (@1000nM, read-out: %Control), 16%; in [6] (read-out: %Control @1000nM), 16%.
With `Cc1cnc(S(C)(=O)=O)nc1N1CCCC(n2nc(-c3ccc(Oc4ccccc4)cc3)c3c(N)ncnc32)C1` (stereo not shown) [Compound 8a, 1-(1-(5-Methyl-2-(methylsulfonyl)pyrimidin-4-yl)piperidin-3-yl)-3-(4-phenoxyphenyl)-1H-pyrazolo[3,4-d]pyrimidin-4-amine], the difference in %Control versus reference Ib at 1 µM in assay [7] (@1000nM, read-out: % difference (compound - Ib %Control)) is 4%. The remaining binding at 1 µM worked out at 98% in assay [7] (@1000nM, read-out: %Control); 98% in assay [7] (read-out: %Control @1000nM); 97% in assay [1] (@1000nM, read-out: %Control); 97% in assay [1] (read-out: %Control @1000nM); 100% in assay [2] (@1000nM, read-out: %Control); 100% in assay [2] (read-out: %Control @1000nM). For the same compound, the remaining binding at 1 µM came to 88% in [3] (@1000nM, read-out: %Control); 88% in assay [3] (read-out: %Control @1000nM); 64% in [4] (@1000nM, read-out: %Control); 64% in [4] (read-out: %Control @1000nM); 92% in [8] (@1000nM, read-out: %Control); 92% in assay [8] (read-out: %Control @1000nM). Also, the remaining binding at 1 µM is 8.1% in assay [9] (@1000nM, read-out: %Control); 8.1% in assay [9] (read-out: %Control @1000nM); 56% in assay [5] (@1000nM, read-out: %Control); 56% in assay [5] (read-out: %Control @1000nM); 21% in [6] (@1000nM, read-out: %Control); 21% in assay [6] (read-out: %Control @1000nM). In addition, the remaining binding at 1 µM was determined as 59% in assay [10] (@1000nM, read-out: %Control) and 59% in assay [10] (read-out: %Control @1000nM). For the same compound, the figures for the difference in %Control versus compound Ib at 1 µM in [1] (@1000nM), in assay [4] (@1000nM) and in assay [10] (@1000nM) were 2%, 64% and 40%, respectively. In assay [2] (@1000nM), this compound came in with a % Control difference from reference compound Ib at 1 µM of 4%. Moreover, the difference in %Control from compound Ib at 1 µM in assay [3] (@1000nM) was 61%. Also, the “0 min IC50 (nM), 3 nM EGFR” value in assay [11] is “none of the compounds, 8a, 8b, or 8d, exhibited measurable inhibition”. The IC50 was over 1000 nM in [11]; 6 nM in assay [12] (0 min preincubation IC50 (nM), 0 min preincubation); 0.31 nM in [12] (60 min preincubation IC50 (nM), 60 min preincubation). Moreover, in assay [12] (IC50 0 min vs 60 min preincubation), the “fold change, 1 nM BTK” value was determined as 19.6.

What is called IC50 is the concentration at which inhibition is half-maximal.
